Results as given in patent US20230014445A1, “ALLOSTERIC CHROMENONE INHIBITORS OF PHOSPHOINOSITIDE 3-KINASE (PI3K) FOR THE TREATMENT OF DISEASE” (Petra Pharma Corporation, priority 2021, published 2023).
pIC50: −log10 of the molar value.

Columns and labels:
[1] = target: T1, human full length PIK3KA H1047R mutant (p110α/p85α complex) (Homo sapiens, UniProt P42336, H1047R); test: PI3K-Alpha Kinase (PIK3CA) biochemical activity, H1047R mutant (ADP-Glo); conditions: Soy PI lipid substrate, 20 uM ATP
T1 construct: Recombinant, catalytically active human full length PIK3KA Wild-type and H1047R mutant were purchased; 6xHis (N); purchased EMD Millipore Sigma 14-792M
T1 sequence (P42336 whole entry H1047R): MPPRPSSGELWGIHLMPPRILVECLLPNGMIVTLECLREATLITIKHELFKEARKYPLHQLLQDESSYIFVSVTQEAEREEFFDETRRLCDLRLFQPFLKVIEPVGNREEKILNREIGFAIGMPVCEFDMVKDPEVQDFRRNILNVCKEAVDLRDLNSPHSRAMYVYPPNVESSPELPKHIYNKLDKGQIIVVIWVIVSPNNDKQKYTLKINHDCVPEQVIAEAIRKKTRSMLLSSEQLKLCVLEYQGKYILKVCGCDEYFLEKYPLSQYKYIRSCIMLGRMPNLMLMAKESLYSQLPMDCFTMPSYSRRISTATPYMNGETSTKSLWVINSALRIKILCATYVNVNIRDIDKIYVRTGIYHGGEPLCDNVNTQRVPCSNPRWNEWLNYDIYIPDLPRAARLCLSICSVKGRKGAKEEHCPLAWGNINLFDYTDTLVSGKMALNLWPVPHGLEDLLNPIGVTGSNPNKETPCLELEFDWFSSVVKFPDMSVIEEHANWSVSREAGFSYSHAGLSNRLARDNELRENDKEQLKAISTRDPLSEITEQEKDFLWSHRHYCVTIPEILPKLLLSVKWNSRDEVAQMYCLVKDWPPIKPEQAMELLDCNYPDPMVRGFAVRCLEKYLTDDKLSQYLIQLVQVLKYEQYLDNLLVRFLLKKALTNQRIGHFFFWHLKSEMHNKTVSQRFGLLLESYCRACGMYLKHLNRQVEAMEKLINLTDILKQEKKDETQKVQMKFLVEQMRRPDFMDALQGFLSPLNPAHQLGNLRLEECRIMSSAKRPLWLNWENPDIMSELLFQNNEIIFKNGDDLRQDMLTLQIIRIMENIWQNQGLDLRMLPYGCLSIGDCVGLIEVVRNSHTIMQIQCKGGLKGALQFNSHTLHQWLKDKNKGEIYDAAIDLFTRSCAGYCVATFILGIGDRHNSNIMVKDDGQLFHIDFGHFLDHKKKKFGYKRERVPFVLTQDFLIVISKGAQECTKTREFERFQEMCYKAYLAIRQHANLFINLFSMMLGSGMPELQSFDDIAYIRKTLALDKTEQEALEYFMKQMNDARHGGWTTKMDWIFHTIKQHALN
T1 sequence (P27986 whole entry partner): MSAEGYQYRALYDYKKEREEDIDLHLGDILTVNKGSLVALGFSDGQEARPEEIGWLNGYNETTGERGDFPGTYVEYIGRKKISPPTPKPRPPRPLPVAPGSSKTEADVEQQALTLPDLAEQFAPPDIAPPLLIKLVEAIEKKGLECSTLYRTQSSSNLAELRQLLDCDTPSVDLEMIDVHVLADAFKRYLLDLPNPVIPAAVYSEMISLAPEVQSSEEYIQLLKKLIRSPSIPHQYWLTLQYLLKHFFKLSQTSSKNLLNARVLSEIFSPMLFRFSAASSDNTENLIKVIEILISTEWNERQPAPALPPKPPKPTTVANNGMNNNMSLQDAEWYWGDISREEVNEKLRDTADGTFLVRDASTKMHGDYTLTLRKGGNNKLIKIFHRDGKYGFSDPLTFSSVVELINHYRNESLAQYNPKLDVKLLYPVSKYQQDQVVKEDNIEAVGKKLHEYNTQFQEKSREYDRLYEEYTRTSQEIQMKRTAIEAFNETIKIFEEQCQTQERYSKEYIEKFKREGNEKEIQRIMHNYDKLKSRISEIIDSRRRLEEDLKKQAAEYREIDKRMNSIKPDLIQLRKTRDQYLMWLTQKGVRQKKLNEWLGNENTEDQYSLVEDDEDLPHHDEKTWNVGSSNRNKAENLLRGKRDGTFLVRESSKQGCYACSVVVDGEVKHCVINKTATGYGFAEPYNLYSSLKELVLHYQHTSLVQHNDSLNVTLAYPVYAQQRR
Procedure, shortened: (§1)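 ADP formation, measured by ADP-Glo luminescence after reaction to about 10% ATP conversion at 27° C., gives 10-point 4-parameter IC50 curves normalized to no-enzyme and DMSO controls. Lipid substrate was PIP2diC8 or Soy PI at 50 uM, with 20 uM ATP. WT or H1047R p110α/p85α complex (1-5 nM) was preincubated 1 h with compound.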

[2] = target: PI3K-α (PIK3CA) in MDA-MB-453 cells (Homo sapiens, UniProt P42336); test: PI3K-Alpha Kinase (PIK3CA) activity in vitro cell based assay (AlphaLisa SureFire); conditions: 0% FBS, 3 hours treatment, read-out: PI3K-α (PIK3CA) in vitro cell based assay IC50
Chain of PI3K-α (PIK3CA) in MDA-MB-453 cells (P42336 whole entry): as the sequence (P42336 whole entry H1047R) above, with R1047H counted along it
Chain of PI3K-α (PIK3CA) in MDA-MB-453 cells (P27986 2-724, further chain): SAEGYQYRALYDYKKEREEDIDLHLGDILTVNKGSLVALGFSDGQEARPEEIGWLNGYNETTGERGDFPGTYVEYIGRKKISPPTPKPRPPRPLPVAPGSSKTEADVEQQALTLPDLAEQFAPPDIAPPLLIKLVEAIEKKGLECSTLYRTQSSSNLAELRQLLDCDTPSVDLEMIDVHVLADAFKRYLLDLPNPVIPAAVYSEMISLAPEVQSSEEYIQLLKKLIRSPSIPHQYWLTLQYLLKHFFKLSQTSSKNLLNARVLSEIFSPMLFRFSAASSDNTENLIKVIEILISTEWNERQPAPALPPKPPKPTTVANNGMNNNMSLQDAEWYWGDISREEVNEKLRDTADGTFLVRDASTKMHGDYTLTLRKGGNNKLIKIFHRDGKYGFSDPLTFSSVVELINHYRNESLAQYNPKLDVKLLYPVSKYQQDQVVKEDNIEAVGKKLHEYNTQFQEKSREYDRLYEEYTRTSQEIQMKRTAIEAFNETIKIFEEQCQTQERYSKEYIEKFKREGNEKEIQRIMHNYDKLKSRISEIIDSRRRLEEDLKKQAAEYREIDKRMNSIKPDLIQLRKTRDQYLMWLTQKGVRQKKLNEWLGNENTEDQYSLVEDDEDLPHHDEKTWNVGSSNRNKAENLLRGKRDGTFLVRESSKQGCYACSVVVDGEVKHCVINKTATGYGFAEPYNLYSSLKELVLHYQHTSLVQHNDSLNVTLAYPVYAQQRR
Procedure, shortened: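 Serum-free MDA-MB-453 cells with 1 μg/mL insulin treated 3 h with a 10-point compound series in 0.3% DMSO; lysates analysed by AlphaLisa SureFire. Relative IC50 from 4-parameter fit of % inhibition versus DMSO (max) and 1 μM GDC-0032 (min) controls, duplicates.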

[3] = target: T2, human full length PIK3KA Wild-type (p110α/p85α complex) (Homo sapiens, UniProt P42336); test: PI3K-Alpha Kinase (PIK3CA) biochemical activity, wild-type (ADP-Glo); conditions: Soy PI lipid substrate, 20 uM ATP
T2 construct: Recombinant, catalytically active human full length PIK3KA Wild-type and H1047R mutant were purchased; 6xHis (N); purchased EMD Millipore Sigma 14-602M
Procedure, shortened: as §1

## Cc1cc(C(C)Nc2ccc(Cl)nc2C(=O)O)c2oc(-c3cccnc3)c(C)c(=O)c2c1 (single isomer, unassigned; isomer 1) [Example 115, 6-Chloro-3-[1-[3,6-dimethyl-4-oxo-2-(3-pyridyl)chromen-8-yl]ethylamino]pyridine-2-carboxylic acid, Isomer 1]
[1]
  pIC50: > 6.30
[2]
  pIC50: > 7.30
[3]
  pIC50: 6.00 to 6.30

## Cc1cc(C(C)Nc2cccnc2C(=O)O)c2oc(-c3cccnc3)c(C)c(=O)c2c1 (single isomer, unassigned; isomer 1) [Example 116, 3-[1-[3,6-Dimethyl-4-oxo-2-(3-pyridyl)chromen-8-yl]ethylamino]pyridine-2-carboxylic acid, Isomer 1]
[1]
  pIC50: > 6.30
[2]
  pIC50: 7.00 to 7.30
[3]
  pIC50: 5.00 to 5.30

## Cc1cc(C(C)Nc2ccc(C(F)(F)F)nc2C(=O)O)c2oc(-c3cccnc3)c(C)c(=O)c2c1 (single isomer, unassigned; isomer 1) [Example 117, 3-[1-[3,6-Dimethyl-4-oxo-2-(3-pyridyl)chromen-8-yl]ethylamino]-6-(trifluoromethyl)pyridine-2-carboxylic acid, Isomer 1]
[1]
  pIC50: > 6.30
[2]
  pIC50: > 7.30
[3]
  pIC50: 5.30 to 6.00

## Cc1cc(C(C)Nc2ccc(C)nc2C(=O)O)c2oc(-c3cccnc3)c(C)c(=O)c2c1 (single isomer, unassigned; isomer 1) [Example 118, 3-[1-[3,6-Dimethyl-4-oxo-2-(3-pyridyl)chromen-8-yl]ethylamino]-6-methyl-pyridine-2-carboxylic acid, Isomer 1]
[1]
  pIC50: > 6.30
[2]
  pIC50: 7.00 to 7.30
[3]
  pIC50: 5.30 to 6.00

## Cc1cc(C(C)Nc2ccc(C(F)(F)F)cc2C(=O)O)c2oc(-c3cccnc3)c(C)c(=O)c2c1 (single isomer, unassigned; isomer 1) [Example 119, 2-[1-[3,6-Dimethyl-4-oxo-2-(3-pyridyl)chromen-8-yl]ethylamino]-5-(trifluoromethyl)benzoic acid, Isomer 1]
[1]
  pIC50: > 6.30
[2]
  pIC50: 7.00 to 7.30
[3]
  pIC50: 5.30 to 6.00

## Cc1cc(C(C)Nc2ccc(F)cc2C(=O)O)c2oc(-c3cccnc3)c(C)c(=O)c2c1 (single isomer, unassigned; isomer 1) [Example 120, 2-[1-[3,6-Dimethyl-4-oxo-2-(3-pyridyl)chromen-8-yl]ethylamino]-5-fluoro-benzoic acid, Isomer 1]
[1]
  pIC50: > 6.30
[2]
  pIC50: > 7.30
[3]
  pIC50: 5.30 to 6.00

## Cc1cc(C(C)Nc2ccc(C)nc2C(=O)O)c2oc(-c3ccccn3)c(C)c(=O)c2c1 (single isomer, unassigned; isomer 1) [Example 122, 3-[1-[3,6-Dimethyl-4-oxo-2-(2-pyridyl)chromen-8-yl]ethylamino]-6-methyl-pyridine-2-carboxylic acid, Isomer 1]
[1]
  pIC50: > 6.30
[2]
  pIC50: 7.00 to 7.30
[3]
  pIC50: 5.00 to 5.30

## Cc1cc(C(C)Nc2ccc(C)nc2C(=O)O)c2oc(-c3cncc(F)c3)c(C)c(=O)c2c1 (single isomer, unassigned; isomer 1) [Example 123, 3-[1-[2-(5-Fluoro-3-pyridyl)-3,6-dimethyl-4-oxo-chromen-8-yl]ethylamino]-6-methyl-pyridine-2-carboxylic acid, Isomer 1]
[1]
  pIC50: > 6.30
[2]
  pIC50: > 7.30
[3]
  pIC50: 5.30 to 6.00

## Cc1cc(C(C)Nc2ccc(F)c(F)c2C(=O)O)c2oc(-c3ccccn3)c(C)c(=O)c2c1 (single isomer, unassigned; isomer 1) [Example 128, 6-[1-[3,6-Dimethyl-4-oxo-2-(2-pyridyl)chromen-8-yl]ethylamino]-2,3-difluoro-benzoic acid, Isomer 1]
[1]
  pIC50: > 6.30
[2]
  pIC50: 7.00 to 7.30
[3]
  pIC50: 6.00 to 6.30

## Cc1cc(C(C)Nc2ccc(Br)nc2C(=O)O)c2oc(-c3cccnc3)c(C)c(=O)c2c1 (single isomer, unassigned; isomer 1) [Example 129, 6-Bromo-3-[1-[3,6-dimethyl-4-oxo-2-(3-pyridyl)chromen-8-yl]ethylamino]pyridine-2-carboxylic acid, Isomer 1]
[1]
  pIC50: > 6.30
[2]
  pIC50: > 7.30
[3]
  pIC50: > 6.30
